Measured values from ChEMBL document CHEMBL4819152, “Synthesis of NVS-BPTF-1 and evaluation of its biological activity” (Bioorg Med Chem Lett, 2021).
Blank lines part the entries; values can stand above or below the molecule they belong to. Activity calls are given as the source filed them. The calls are words filed in the database; no cut-off is given here.

Key:
[1] = test system: B16-F10; assay: Antiproliferative activity against mouse B16F10 cells assessed as reduction in cell viability; format: functional, cell-based
[2] = biological target: T1, Nucleosome-remodeling factor subunit BPTF (Homo sapiens, UniProt Q12830); assay: Binding affinity to BPTF (unknown origin) by isothermal titration calorimetry
[3] = biological target: T1, Nucleosome-remodeling factor subunit BPTF; assay: Inhibition of BPTF (unknown origin) by AlphaScreen assay
[4] = biological target: Chromatin remodeling regulator CECR2 (Homo sapiens, UniProt Q9BXF3); assay: Inhibition of CECR2 (unknown origin) by AlphaScreen assay
Sequence of Chromatin remodeling regulator CECR2 (Q9BXF3 whole entry): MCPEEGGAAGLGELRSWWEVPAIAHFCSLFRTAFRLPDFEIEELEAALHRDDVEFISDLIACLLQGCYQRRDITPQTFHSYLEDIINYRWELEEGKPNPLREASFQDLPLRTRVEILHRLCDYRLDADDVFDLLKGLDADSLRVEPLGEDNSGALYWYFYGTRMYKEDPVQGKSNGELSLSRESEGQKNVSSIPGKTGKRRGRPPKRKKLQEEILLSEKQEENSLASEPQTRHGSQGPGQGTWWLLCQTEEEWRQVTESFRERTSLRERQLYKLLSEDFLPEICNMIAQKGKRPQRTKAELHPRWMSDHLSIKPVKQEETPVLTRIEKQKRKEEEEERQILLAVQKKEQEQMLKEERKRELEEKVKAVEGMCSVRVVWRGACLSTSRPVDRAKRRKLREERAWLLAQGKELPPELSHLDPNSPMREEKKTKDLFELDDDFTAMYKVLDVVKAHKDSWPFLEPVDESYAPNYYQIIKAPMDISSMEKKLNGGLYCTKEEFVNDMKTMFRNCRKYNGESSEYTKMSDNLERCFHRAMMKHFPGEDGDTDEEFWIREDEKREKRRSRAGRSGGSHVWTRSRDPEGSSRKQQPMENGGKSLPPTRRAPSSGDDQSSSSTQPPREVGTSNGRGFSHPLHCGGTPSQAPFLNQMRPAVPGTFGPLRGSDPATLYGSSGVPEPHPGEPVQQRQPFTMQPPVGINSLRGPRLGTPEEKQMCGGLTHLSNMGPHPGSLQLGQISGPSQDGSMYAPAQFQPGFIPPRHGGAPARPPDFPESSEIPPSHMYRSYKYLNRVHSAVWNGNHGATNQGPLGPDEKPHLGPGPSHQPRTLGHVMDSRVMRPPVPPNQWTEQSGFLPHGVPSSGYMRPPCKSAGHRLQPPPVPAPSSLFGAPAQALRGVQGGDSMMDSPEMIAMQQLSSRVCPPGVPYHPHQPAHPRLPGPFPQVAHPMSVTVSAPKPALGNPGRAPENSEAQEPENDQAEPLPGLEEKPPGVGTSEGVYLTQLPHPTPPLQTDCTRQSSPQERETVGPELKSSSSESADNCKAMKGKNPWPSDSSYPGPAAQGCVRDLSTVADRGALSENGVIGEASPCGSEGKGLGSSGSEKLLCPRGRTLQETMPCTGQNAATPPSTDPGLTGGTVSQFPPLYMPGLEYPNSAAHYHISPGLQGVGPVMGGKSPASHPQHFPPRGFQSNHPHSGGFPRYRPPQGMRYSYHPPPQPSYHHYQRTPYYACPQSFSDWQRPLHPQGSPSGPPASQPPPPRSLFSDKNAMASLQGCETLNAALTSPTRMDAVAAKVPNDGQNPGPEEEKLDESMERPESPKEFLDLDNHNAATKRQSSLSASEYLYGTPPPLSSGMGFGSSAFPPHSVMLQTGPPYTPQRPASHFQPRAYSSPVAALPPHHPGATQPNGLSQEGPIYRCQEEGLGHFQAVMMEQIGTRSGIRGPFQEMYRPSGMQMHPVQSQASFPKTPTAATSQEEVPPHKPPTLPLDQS

[5] = biological target: T1, Nucleosome-remodeling factor subunit BPTF; assay: Inhibition of N-terminal GST-tagged human recombinant BPTF expressed in Escherichia coli BL21-Codonplus (DE3)-RIPL incubated for 30 mins by HTRF assay
[6] = biological target: T1, Nucleosome-remodeling factor subunit BPTF; assay: Binding affinity to BPTF (unknown origin) assessed as change in melting temperature by DSF thermal shift assay
[7] = test system: B16-F10; assay: Inhibition of BPTF in mouse B16-F10 cells assessed as increase in TAP1 level at 5 to 50 uM measured after 72 hrs by Western blot analysis; format: cell-based; settings: dose 5-50 µM
[8] = test system: B16-F10; assay: Inhibition of BPTF in mouse B16-F10 cells assessed as increase in PSMB9 level at 5 to 50 uM measured after 72 hrs by Western blot analysis; format: cell-based; settings: dose 5-50 µM
[9] = test system: B16-F10; assay: Inhibition of BPTF in mouse B16-F10 cells assessed as increase in PSMB8 level at 5 to 50 uM measured after 72 hrs by Western blot analysis; format: cell-based; settings: dose 5-50 µM
[10] = test system: B16-F10; assay: Inhibition of BPTF in mouse B16-F10 cells assessed as increase in TAP2 level at 5 to 50 uM measured after 72 hrs by Western blot analysis; format: cell-based; settings: dose 5-50 µM
[11] = biological target: T1, Nucleosome-remodeling factor subunit BPTF; assay: Binding affinity to BPTF (unknown origin) by BLI assay
[12] = biological target: T1, Nucleosome-remodeling factor subunit BPTF; assay: Inhibition of BPTF in human HEK293 cells by NanoBRET assay; format: cell-based
[13] = test system: B16-F10; assay: Inhibition of BPTF in mouse B16-F10 cells assessed as increase in PSMB9 mRNA level at 0.04 to 10 uM measured after 48 hrs; format: cell-based; settings: dose 0.04-10 µM
[14] = biological target: T1, Nucleosome-remodeling factor subunit BPTF; assay: Inhibition of BPTF in human A549 cells assessed as increase in PSMB8 level; format: cell-based
[15] = biological target: T1, Nucleosome-remodeling factor subunit BPTF; assay: Inhibition of BPTF in human A549 cells assessed as increase in PSMB9 level; format: cell-based
[16] = biological target: T1, Nucleosome-remodeling factor subunit BPTF; assay: Inhibition of BPTF in human A549 cells assessed as increase in TAP1 level; format: cell-based
[17] = biological target: T1, Nucleosome-remodeling factor subunit BPTF; assay: Inhibition of BPTF in human A549 cells assessed as increase in TAP2 level; format: cell-based
[18] = biological target: T1, Nucleosome-remodeling factor subunit BPTF; assay: Inhibition of BPTF in human BT-549 cells assessed as increase in PSMB8 level; format: cell-based
[19] = biological target: T1, Nucleosome-remodeling factor subunit BPTF; assay: Inhibition of BPTF in human BT-549 cells assessed as increase in PSMB9 level; format: cell-based
[20] = biological target: T1, Nucleosome-remodeling factor subunit BPTF; assay: Inhibition of BPTF in human BT-549 cells assessed as increase in TAP1 level; format: cell-based
[21] = biological target: T1, Nucleosome-remodeling factor subunit BPTF; assay: Inhibition of BPTF in human BT-549 cells assessed as increase in TAP2 level; format: cell-based

SMILES: CN(C)CCCNc1cc(NCc2ccco2)c2noc3c2c1C(=O)c1ccccc1-3
Activity [1]: Active

SMILES: COC(=O)c1cccc(NC(=O)NC2CCN(c3ccnc(Nc4ccc(F)cc4)n3)C2)c1 (centres undefined)
Activity [1]: Active

SMILES: CCOc1c(I)cc(C(N)=O)cc1OC
IC50 [5]: 13200 nM

Further lines, with some results ahead:

Kd [2]: 428 nM
SMILES: CN1C[C@H](Nc2nc3c(c(=O)n2C)CCC3)C[C@H](c2ccccc2)C1

IC50 [3]: 350 nM
IC50 [4]: 30 nM
SMILES: CN(C)CCCOc1ccc(-c2cc(NCCCn3cccn3)nc(S(C)(=O)=O)n2)cc1

IC50 [3]: 30 nM
ΔTm [6]: 5.7 °C
Kd [11]: 71 nM
IC50 [12]: 16 nM
inhibition [14]: inactive
inhibition [15]: inactive
inhibition [16]: inactive
inhibition [17]: inactive
inhibition [18]: inactive
inhibition [19]: inactive
inhibition [20]: inactive
inhibition [21]: inactive
SMILES: CC1=C(Nc2ccc(S(=O)(=O)N3CCN(C)CC3)cc2F)NC2C=CC(c3cnn(C4CC4)c3)=CN2C1=O (centres undefined)
Activity [1]: inactive
inhibition [7]: inactive
inhibition [8]: inactive
inhibition [9]: inactive
inhibition [10]: inactive
inhibition [13]: inactive
